Data on four molecules can be found in patent publication US5194432A, “Cephem compounds” (Fujisawa Pharmaceutical Co., Ltd., priority 1985, dated 1993).

The structures appear in SMILES notation. Converted amounts (≈) assume the structure as drawn.

Type in all cases: cell-based
Assay [1] concerns P. mirabilis 1. Put plainly: In vitro antibacterial activity, two-fold agar-plate dilution method (MIC), P. mirabilis 1. The following applies: Proteus mirabilis, heart infusion agar, 10^6 viable cells per ml, 37° C., 20 hours, read-out: MIC (minimal inhibitory concentration). The protocol:
(§1) In vitro antibacterial activity was determined by the two-fold agar-plate dilution method as described below.
(§2) One loopful of an overnight culture of each test strain in Trypticase-soy broth (10^6 viable cells per ml) was streaked on heart infusion agar (HI-agar) containing graded concentrations of representative test compound, and the minimal inhibitory concentration (MIC) was expressed in terms of μg/ml after incubation at 37° C. for 20 hours.

Assay [2] concerns P. vulgaris IAM1025. Kind of assay: In vitro antibacterial activity, two-fold agar-plate dilution method (MIC), P. vulgaris IAM1025. The following applies: Proteus vulgaris, heart infusion agar, 10^6 viable cells per ml, 37° C., 20 hours, read-out: MIC (minimal inhibitory concentration). On the procedure: as §1, §2
The subject of assay [3] is E. coli 31. Kind of assay: In vitro antibacterial activity, two-fold agar-plate dilution method (MIC), E. coli 31. The following applies: Escherichia coli, heart infusion agar, 10^6 viable cells per ml, 37° C., 20 hours, read-out: MIC (minimal inhibitory concentration). The protocol: as §1, §2

Consider `Cn1ccc[n+]1CC1=C(C(=O)[O-])N2C(=O)[C@@H](NC(=O)/C(=N\OC(F)F)c3csc(N)n3)[C@H]2SC1` [Compound A, 7β-[2-(2-Aminothiazol-4-yl)-2-(difluoromethoxyimino)acetamido]-3-(2-methyl-1-pyrazolio)methyl-3-cephem-4-carboxylate (syn isomer)], for which the MIC was 0.05 µg/mL (≈ 0.0974 µM) in assay [1], 0.05 µg/mL (≈ 0.0974 µM) in assay [2] and below 0.025 µg/mL in assay [3].
Regarding `Cn1ccc[n+]1CC1=C(C(=O)[O-])N2C(=O)[C@@H](NC(=O)/C(=N\OC3C=CCC3)c3csc(N)n3)[C@H]2SC1` (stereo partly drawn) [Compound B, 7β-[2-(2-Aminothiazol-4-yl)-2-(2-cyclopenten-1-yloxyimino)acetamido]-3-(2-methyl-1-pyrazolio)methyl-3-cephem-4-carboxylate (syn isomer)], the MIC in assay [1] came to 0.2 µg/mL (≈ 0.378 µM); in assay [2] it was 0.05 µg/mL (≈ 0.0944 µM); in assay [3], 0.05 µg/mL (≈ 0.0944 µM).
For `CO/N=C(\C(=O)N[C@@H]1C(=O)N2C(C(=O)[O-])=C(C[n+]3cc(C)c(N)n3C)CS[C@H]12)c1csc(N)n1` [Compound C, 7β-[2-(2-Aminothiazol-4-yl)-2-methoxyiminoacetamido]-3-(3-amino-2,4-dimethyl-1-pyrazolio)methyl-3-cephem-4-carboxylate (syn isomer)], the MIC in assay [1] was 0.05 µg/mL (≈ 0.0987 µM); in assay [2], at most 0.025 µg/mL; in assay [3], at most 0.025 µg/mL.
Consider `Cc1c[n+](CC2=C(C(=O)[O-])N3C(=O)[C@@H](NC(=O)/C(=N\OC(F)F)c4csc(N)n4)[C@H]3SC2)n(C)c1N` [Compound D, 7β-[2-(2-Aminothiazol-4-yl)-2-(difluoromethoxyimino)acetamido]-3-(3-amino-2,4-dimethyl-1-pyrazolio)methyl-3-cephem-4-carboxylate (syn isomer)], for which the MIC is 0.05 µg/mL (≈ 0.0922 µM) in assay [1], at most 0.025 µg/mL in assay [2] and at most 0.025 µg/mL in assay [3].
